From patent US10897901B2, “Herbicidal composition” (FMC Corporation, priority 2007, dated 2021)

Assays:
Type in all cases: in vivo
[1] = system: Smooth Crabgrass (Digitaria ischaemum); assay: Example 1 post-emergent turf plot test, 3 leaf/2 tiller crabgrass
Method: (§1) The experimental design used randomized plots with post-emergent treatment and three replications per test trial. The size of each experimental plot was 4 feet by 6 feet. The application of each test composition was performed with pressurized back-pack sprayers, calibrated to spray 200 gallons per acre. Test compositions containing sulfentrazone (DISMISS™ Turf Herbicide), quniclorac, (FACET® 75 DF herbicide) or a mixture of sulfentrazone and quinclorac in a 1:3 ratio, prepared as described above, were diluted with water to provide the appropriate test rate concentrations.
(§2) The control of weeds was evaluated in each experimental plot from 7 to 41 days after treatment (DAT) of each test rate. The results, shown as an average of the replications, were compared with results observed in untreated control plots in the same trials.

[2] = system: Ivyleaf Morningglory (Ipomoea hederacea); assay: Example 4 post-emergence greenhouse pot test, morningglory
Method: (§3) Test compositions containing sulfentrazone (75 DF formulation), quniclorac, (DRIVE® 75 DF Herbicide) or mixtures of sulfentrazone and quinclorac at ratios of 1:1 to 1:5, were diluted with water to provide the appropriate test rate concentrations. A nonionic surfactant (0.25%) was added to each test solution. The test weeds include crabgrass (Digitaria sp), Chickweed (Stellaria media), Hemp Sesbania (Sesbania exaltata), Kochia (Kochia scoparia), Ivyleaf Morningglory (Ipomoea hederacea), Redroot Pigweed (Amaranthus retroflexus) and yellow nutsedge (Cyperus esculentusi).
(§4) For post-emergence testing, three disposable 3 inch square pots for each rate of application of each herbicide were filled with a soil, comprised of peat moss, vermiculite, bark ash, pine bark, limestone and a wetting agent, to which 8 to 10 seeds were planted. The pots were placed in a greenhouse and watered daily, thus allowing the seeds to germinate and the foliage to develop for 22 days, 3 months for Kochia.
(§5) Pots designated for treatment were placed on a conveyor belt and the conveyor belt fed under a spray nozzle mounted about ten inches above the foliage. The spray of herbicidal solution was commenced and once stabilized; the pots were passed under the spray at a speed to receive a coverage equivalent of 30 gallons per acre. The application rates are those shown in Table 4 below for the individual herbicidal solutions and the mixture of sulfentrazone and quinclorac. The post-emergence pots were immediately placed in the green-house and not watered until 24 hours after treatment with the test solution. Thereafter they were regularly watered at ground level. The control of weeds was evaluated in each experimental test from 2 to 20 days after treatment (DAT). The results, shown as an average of the replications, were compared with results observed in untreated control pots in the same tests.
(§6) Percent control was determined by a method similar to the 0 to 100 rating system disclosed in “Research Methods in Weed Science,” 2nd ed., B. Truelove, Ed.; Southern Weed Science Society; Auburn University, Auburn, Ala., 1977.

[3] = system: Chickweed (Stellaria media); assay: Example 4 post-emergence greenhouse pot test, chickweed
Method: as §3, §4, §5, §6

[4] = system: Yellow Nutsedge (Cyperus esculentus); assay: Example 1 post-emergent turf plot test, nutsedge
Method: as §1, §2

[5] = system: Field Violet (Viola arvensis); assay: Example 1 post-emergent turf plot test, violet
Method: as §1, §2

[6] = system: Field Violet (Viola arvensis); assay: Example 2 post-emergent turf plot test, violet
Method: The experimental design used randomized plots with post-emergent treatment and three replications per test trial. The size of each experimental plot was 4 feet by 6 feet. The application of each test composition was performed with pressurized back-pack sprayers, calibrated to spray 200 gallons per acre. Test compositions containing sulfentrazone (DISMISS™ Turf Herbicide), quinclorac, (FACET® 75 DF herbicide) or a mixture of sulfentrazone and quinclorac in a one to three ratio, prepared as described above, were diluted with water to provide the appropriate test rate concentrations.
The control of weeds was evaluated in each experimental plot from 1 to 27 days after treatment (DAT) of each test rate. The results, shown as an average of the replications, were compared with results observed in untreated control plots in the same trials.

[7] = system: yellow nutsedge (Cyperus esculentusi); assay: Example 4 post-emergence greenhouse pot test, nutsedge
Method: as §3, §4, §5, §6

[8] = system: Kochia (Kochia scoparia); assay: Example 4 post-emergence greenhouse pot test, kochia
Method: as §3, §4, §5, §6

Cc1nn(-c2cc(NS(C)(=O)=O)c(Cl)cc2Cl)c(=O)n1C(F)F [A, N-[2,4-dichloro-5-[4-(difluoromethyl)-4,5-dihydro-3-methyl-5-oxo-1H-1,2,4-triazol-1-yl]phenyl]methanesulfonamide]
Percent Control ([1]; 0.57 lb ai/acre, 7 DAT): 70%
Percent Control ([1]; 0.57 lb ai/acre, 14 DAT): 78%
Percent Control ([1]; 0.57 lb ai/acre, 21 DAT): 86%
Percent Control ([1]; 0.57 lb ai/acre, 28 DAT): 75%
Percent Control ([1]; 0.57 lb ai/acre, 41 DAT): 71%
Percent Control ([2]; 0.25 lb ai/acre, 2 DAT): 60%
Percent Control ([2]; 0.25 lb ai/acre, 7 DAT): 80%
Percent Control ([2]; 0.25 lb ai/acre, 14 DAT): 90%
Percent Control ([2]; 0.25 lb ai/acre, 20 DAT): 99%
Percent Control ([3]; 0.25 lb ai/acre, 2 DAT): 30%
Percent Control ([3]; 0.25 lb ai/acre, 7 DAT): 30%
Percent Control ([3]; 0.25 lb ai/acre, 14 DAT): 10%
Percent Control ([3]; 0.25 lb ai/acre, 20 DAT): 0%
Percent Control ([4]; 0.57 lb ai/acre, 7 DAT): 50%
Percent Control ([4]; 0.57 lb ai/acre, 14 DAT): 75%
Percent Control ([4]; 0.57 lb ai/acre, 21 DAT): 89%
Percent Control ([4]; 0.57 lb ai/acre, 28 DAT): 91%
Percent Control ([5]; 0.57 lb ai/acre, 7 DAT): 64%
Percent Control ([5]; 0.57 lb ai/acre, 14 DAT): 75%
Percent Control ([5]; 0.57 lb ai/acre, 21 DAT): 76%
Percent Control ([5]; 0.57 lb ai/acre, 28 DAT): 70%
Percent Control ([5]; 0.57 lb ai/acre, 41 DAT): 75%
Percent Control ([6]; 0.57 lb ai/acre, 7 DAT): 66%
Percent Control ([6]; 0.57 lb ai/acre, 14 DAT): 78%
Percent Control ([6]; 0.57 lb ai/acre, 21 DAT): 69%
Percent Control ([7]; 0.25 lb ai/acre, 2 DAT): 25%
Percent Control ([7]; 0.25 lb ai/acre, 7 DAT): 60%
Percent Control ([7]; 0.25 lb ai/acre, 14 DAT): 85%
Percent Control ([7]; 0.25 lb ai/acre, 20 DAT): 95%
Percent Control ([8]; 0.25 lb ai/acre, 2 DAT): 10%
Percent Control ([8]; 0.25 lb ai/acre, 7 DAT): 70%
Percent Control ([8]; 0.25 lb ai/acre, 14 DAT): 95%
Percent Control ([8]; 0.25 lb ai/acre, 20 DAT): 99%

O=C(O)c1c(Cl)ccc2cc(Cl)cnc12 [B, 3,7-dichloro-8-quinolinecarboxylic acid]
Percent Control ([1]; 0.75 lb ai/acre, 7 DAT): 75%
Percent Control ([1]; 0.75 lb ai/acre, 14 DAT): 55%
Percent Control ([1]; 0.75 lb ai/acre, 21 DAT): 78%
Percent Control ([1]; 0.75 lb ai/acre, 28 DAT): 67%
Percent Control ([1]; 0.75 lb ai/acre, 41 DAT): 57%
Percent Control ([2]; 0.25 lb ai/acre, 2 DAT): 20%
Percent Control ([2]; 0.25 lb ai/acre, 7 DAT): 25%
Percent Control ([2]; 0.25 lb ai/acre, 14 DAT): 60%
Percent Control ([2]; 0.25 lb ai/acre, 20 DAT): 70%
Percent Control ([2]; 0.5 lb ai/acre, 2 DAT): 20%
Percent Control ([2]; 0.5 lb ai/acre, 7 DAT): 25%
Percent Control ([2]; 0.5 lb ai/acre, 14 DAT): 40%
Percent Control ([2]; 0.5 lb ai/acre, 20 DAT): 50%
Percent Control ([2]; 0.75 lb ai/acre, 2 DAT): 20%
Percent Control ([2]; 0.75 lb ai/acre, 7 DAT): 25%
Percent Control ([2]; 0.75 lb ai/acre, 14 DAT): 40%
Percent Control ([2]; 0.75 lb ai/acre, 20 DAT): 50%
Percent Control ([2]; 1.0 lb ai/acre, 2 DAT): 20%
Percent Control ([2]; 1.0 lb ai/acre, 7 DAT): 25%
Percent Control ([2]; 1.0 lb ai/acre, 14 DAT): 50%
Percent Control ([2]; 1.0 lb ai/acre, 20 DAT): 70%
Percent Control ([2]; 1.25 lb ai/acre, 2 DAT): 20%
Percent Control ([2]; 1.25 lb ai/acre, 7 DAT): 25%
Percent Control ([2]; 1.25 lb ai/acre, 14 DAT): 40%
Percent Control ([2]; 1.25 lb ai/acre, 20 DAT): 50%
Percent Control ([3]; 0.25 lb ai/acre, 2 DAT): 0%
Percent Control ([3]; 0.25 lb ai/acre, 7 DAT): 0%
Percent Control ([3]; 0.25 lb ai/acre, 14 DAT): 0%
Percent Control ([3]; 0.25 lb ai/acre, 20 DAT): 0%
Percent Control ([3]; 0.5 lb ai/acre, 2 DAT): 0%
Percent Control ([3]; 0.5 lb ai/acre, 7 DAT): 0%
Percent Control ([3]; 0.5 lb ai/acre, 14 DAT): 0%
Percent Control ([3]; 0.5 lb ai/acre, 20 DAT): 0%
Percent Control ([3]; 0.75 lb ai/acre, 2 DAT): 0%
Percent Control ([3]; 0.75 lb ai/acre, 7 DAT): 0%
Percent Control ([3]; 0.75 lb ai/acre, 14 DAT): 0%
Percent Control ([3]; 0.75 lb ai/acre, 20 DAT): 0%
Percent Control ([3]; 1.0 lb ai/acre, 2 DAT): 0%
Percent Control ([3]; 1.0 lb ai/acre, 7 DAT): 5%
Percent Control ([3]; 1.0 lb ai/acre, 14 DAT): 5%
Percent Control ([3]; 1.0 lb ai/acre, 20 DAT): 5%
Percent Control ([3]; 1.25 lb ai/acre, 2 DAT): 5%
Percent Control ([3]; 1.25 lb ai/acre, 7 DAT): 5%
Percent Control ([3]; 1.25 lb ai/acre, 14 DAT): 2%
Percent Control ([3]; 1.25 lb ai/acre, 20 DAT): 5%
Percent Control ([4]; 0.75 lb ai/acre, 7 DAT): 100%
Percent Control ([4]; 0.75 lb ai/acre, 14 DAT): 40%
Percent Control ([4]; 0.75 lb ai/acre, 21 DAT): 10%
Percent Control ([4]; 0.75 lb ai/acre, 28 DAT): 13%
Percent Control ([5]; 0.75 lb ai/acre, 7 DAT): 43%
Percent Control ([5]; 0.75 lb ai/acre, 14 DAT): 46%
Percent Control ([5]; 0.75 lb ai/acre, 21 DAT): 43%
Percent Control ([5]; 0.75 lb ai/acre, 28 DAT): 41%
Percent Control ([5]; 0.75 lb ai/acre, 41 DAT): 37%
Percent Control ([6]; 0.75 lb ai/acre, 7 DAT): 46%
Percent Control ([6]; 0.75 lb ai/acre, 14 DAT): 48%
Percent Control ([6]; 0.75 lb ai/acre, 21 DAT): 51%
Percent Control ([7]; 0.25 lb ai/acre, 2 DAT): 0%
Percent Control ([7]; 0.25 lb ai/acre, 7 DAT): 0%
Percent Control ([7]; 0.25 lb ai/acre, 14 DAT): 0%
Percent Control ([7]; 0.25 lb ai/acre, 20 DAT): 0%
Percent Control ([7]; 0.5 lb ai/acre, 2 DAT): 0%
Percent Control ([7]; 0.5 lb ai/acre, 7 DAT): 0%
Percent Control ([7]; 0.5 lb ai/acre, 14 DAT): 0%
Percent Control ([7]; 0.5 lb ai/acre, 20 DAT): 0%
Percent Control ([7]; 0.75 lb ai/acre, 2 DAT): 0%
Percent Control ([7]; 0.75 lb ai/acre, 7 DAT): 0%
Percent Control ([7]; 0.75 lb ai/acre, 14 DAT): 0%
Percent Control ([7]; 0.75 lb ai/acre, 20 DAT): 0%
Percent Control ([7]; 1.0 lb ai/acre, 2 DAT): 0%
Percent Control ([7]; 1.0 lb ai/acre, 7 DAT): 0%
Percent Control ([7]; 1.0 lb ai/acre, 14 DAT): 0%
Percent Control ([7]; 1.0 lb ai/acre, 20 DAT): 0%
Percent Control ([7]; 1.25 lb ai/acre, 2 DAT): 0%
Percent Control ([7]; 1.25 lb ai/acre, 7 DAT): 0%
Percent Control ([7]; 1.25 lb ai/acre, 14 DAT): 0%
Percent Control ([7]; 1.25 lb ai/acre, 20 DAT): 0%
Percent Control ([8]; 0.25 lb ai/acre, 2 DAT): 0%
Percent Control ([8]; 0.25 lb ai/acre, 7 DAT): 0%
Percent Control ([8]; 0.25 lb ai/acre, 14 DAT): 5%
Percent Control ([8]; 0.25 lb ai/acre, 20 DAT): 5%
Percent Control ([8]; 0.5 lb ai/acre, 2 DAT): 0%
Percent Control ([8]; 0.5 lb ai/acre, 7 DAT): 0%
Percent Control ([8]; 0.5 lb ai/acre, 14 DAT): 20%
Percent Control ([8]; 0.5 lb ai/acre, 20 DAT): 20%
Percent Control ([8]; 0.75 lb ai/acre, 2 DAT): 0%
Percent Control ([8]; 0.75 lb ai/acre, 7 DAT): 0%
Percent Control ([8]; 0.75 lb ai/acre, 14 DAT): 10%
Percent Control ([8]; 0.75 lb ai/acre, 20 DAT): 5%
Percent Control ([8]; 1.0 lb ai/acre, 2 DAT): 0%
Percent Control ([8]; 1.0 lb ai/acre, 7 DAT): 0%
Percent Control ([8]; 1.0 lb ai/acre, 14 DAT): 10%
Percent Control ([8]; 1.0 lb ai/acre, 20 DAT): 20%
Percent Control ([8]; 1.25 lb ai/acre, 2 DAT): 0%
Percent Control ([8]; 1.25 lb ai/acre, 7 DAT): 0%
Percent Control ([8]; 1.25 lb ai/acre, 14 DAT): 10%
Percent Control ([8]; 1.25 lb ai/acre, 20 DAT): 10%
